Literature values, collected in patent US20060019984A1, “Treatment of diseases with alpha-7nACh receptor full agonists” (Pfizer Inc, priority 2003, published 2006).

Tests used:
α7 nAChR = α7 nAChR (Homo sapiens, UniProt P36544); conditions: general statement, no method or value given
5HT3R = biological target: T1, 5HT3R (Homo sapiens, UniProt P46098); conditions: general statement, no method or value given
T1 sequence (P46098 24-478): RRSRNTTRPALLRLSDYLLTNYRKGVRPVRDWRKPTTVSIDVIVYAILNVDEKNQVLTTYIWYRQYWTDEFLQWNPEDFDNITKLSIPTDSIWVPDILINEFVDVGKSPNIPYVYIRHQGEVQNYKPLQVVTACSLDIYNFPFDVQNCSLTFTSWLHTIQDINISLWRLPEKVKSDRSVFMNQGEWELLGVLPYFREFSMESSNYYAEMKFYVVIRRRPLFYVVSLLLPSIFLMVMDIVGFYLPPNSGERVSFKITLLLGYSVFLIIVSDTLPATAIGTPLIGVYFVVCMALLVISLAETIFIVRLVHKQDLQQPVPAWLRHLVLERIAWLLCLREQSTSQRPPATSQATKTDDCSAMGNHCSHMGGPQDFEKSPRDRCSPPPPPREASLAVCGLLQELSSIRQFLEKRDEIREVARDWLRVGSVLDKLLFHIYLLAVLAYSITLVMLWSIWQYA

Chain of α7 nAChR (P36544 23-502): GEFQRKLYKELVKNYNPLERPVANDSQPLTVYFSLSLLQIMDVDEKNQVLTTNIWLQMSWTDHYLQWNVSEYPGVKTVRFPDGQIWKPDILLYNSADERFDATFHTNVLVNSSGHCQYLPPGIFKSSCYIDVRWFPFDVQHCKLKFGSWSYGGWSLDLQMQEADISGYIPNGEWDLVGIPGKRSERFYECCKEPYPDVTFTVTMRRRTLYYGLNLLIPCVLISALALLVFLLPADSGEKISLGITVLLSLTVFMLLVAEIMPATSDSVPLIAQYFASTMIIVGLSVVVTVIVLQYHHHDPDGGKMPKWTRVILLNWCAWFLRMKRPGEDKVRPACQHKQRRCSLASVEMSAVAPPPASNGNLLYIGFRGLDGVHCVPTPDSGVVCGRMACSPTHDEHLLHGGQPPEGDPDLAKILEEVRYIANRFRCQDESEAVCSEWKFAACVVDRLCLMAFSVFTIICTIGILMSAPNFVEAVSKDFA

Compound	activity at the α7 nAChR (α7 nAChR)	activity at the 5HT3R (5HT3R)
Cc1nccn1CC1CCc2c(c3ccccc3n2C)C1=O (centres unmarked) [Ondansetron]	little activity	–
COc1ccc(/C=C2\CCCN=C2c2cccnc2)c(OC)c1 [GTS-21]	–	little activity
